Laboratory results reported in patent US20190076466A1, “REDUCED SODIUM POLOXAMER-188 FORMULATIONS AND METHODS FOR USE” (MAST THERAPEUTICS, INC., priority 2015, published 2019).

Experiment: osmolality by vapor pressure osmometry
Settings: no poloxamer
Protocol: The osmolality of LCMF poloxamer 188 in water was evaluated over the range 25 mg/mL to 400 mg/mL using vapor pressure osmometry (Table 7). […] Any solutions with osmolality values below 270 mOsm/kg or above 300 mOsm/kg are considered hypotonic and hypertonic respectively.
Drug substance was added to sterile water for injection at 6 concentrations ranging from 15% to 40% and the osmolality values of the solutions were recorded. Sodium chloride was then added to sterile water for injection to make six sodium chloride solutions with osmolality values matching those of the poloxamer 188 solutions. An isotonic 15% poloxamer 188 solution was used as a comparator.

[Cl-].[Na+] [NaCl, Sodium chloride]
Osmolality (0.36% (w/w) NaCl in SWFI): 116 mOsm/kg | Osmolality (0.74% (w/w) NaCl in SWFI): 224 mOsm/kg | Osmolality (1.35% (w/w) NaCl in SWFI): 432 mOsm/kg | Osmolality (3.13% (w/w) NaCl in SWFI): 995 mOsm/kg | Osmolality ([…] (w/w) NaCl in SWFI): 690 mOsm/kg
